Experimental data published in ChEMBL document CHEMBL1201861, “Genomics of Drug Sensitity in Cancer screening data, Wellcome Trust Sanger Institute”.

Each compound was assayed on COLO-792 (assay: cells). Conditions: Homo sapiens.
Assay type: functional, cell-based
Description: SANGER: Inhibition of human COLO-792 cell growth in a cell viability assay.

Compound	IC50 [µM]
CS(=O)(=O)N1CCN(Cc2cc3nc(-c4cccc5[nH]ncc45)nc(N4CCOCC4)c3s2)CC1 [PICTILISIB]	> 4

These compounds were tested on COR-L105 (assay: cells). Conditions: Homo sapiens.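 Further: cell growth inhibition determined with a viability assay.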
Assay type: functional, cell-based
Description: SANGER: Inhibition of human COR-L105 cell growth in a cell viability assay.

Compound	IC50 [µM]
CS(=O)(=O)N1CCN(Cc2cc3nc(-c4cccc5[nH]ncc45)nc(N4CCOCC4)c3s2)CC1 [PICTILISIB]	> 4

The compounds below were run on CP50-MEL-B (assay: cells). Conditions: Homo sapiens.
Assay type: functional, cell-based
Description: SANGER: Inhibition of human CP50-MEL-B cell growth in a cell viability assay.

Compound	IC50 [µM]
CS(=O)(=O)N1CCN(Cc2cc3nc(-c4cccc5[nH]ncc45)nc(N4CCOCC4)c3s2)CC1 [PICTILISIB]	> 4

Each compound was assayed on DBTRG-05MG (assay: cells). Conditions: Homo sapiens.
Assay type: functional, cell-based
Description: SANGER: Inhibition of human DBTRG-05MG cell growth in a cell viability assay.

Compound	IC50 [µM]
CS(=O)(=O)N1CCN(Cc2cc3nc(-c4cccc5[nH]ncc45)nc(N4CCOCC4)c3s2)CC1 [PICTILISIB]	> 4

What follows are compounds tested on ESS-1 (assay: cells). Conditions: Homo sapiens.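 Further: growth inhibition of human ESS-1 cells, read out by a cell viability assay.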
Assay type: functional, cell-based
Description: SANGER: Inhibition of human ESS-1 cell growth in a cell viability assay.

Compound	IC50 [µM]
CS(=O)(=O)N1CCN(Cc2cc3nc(-c4cccc5[nH]ncc45)nc(N4CCOCC4)c3s2)CC1 [PICTILISIB]	> 4

These compounds were tested on GMS-10 (assay: cells). Conditions: Homo sapiens.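 Further: growth inhibition of GMS-10 cells, read out as cell viability.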
Assay type: functional, cell-based
Description: SANGER: Inhibition of human GMS-10 cell growth in a cell viability assay.

Compound	IC50 [µM]
CS(=O)(=O)N1CCN(Cc2cc3nc(-c4cccc5[nH]ncc45)nc(N4CCOCC4)c3s2)CC1 [PICTILISIB]	> 4

The compounds below were run on HCC1419 (assay: cells). Conditions: Homo sapiens.
Assay type: functional, cell-based
Description: SANGER: Inhibition of human HCC1419 cell growth in a cell viability assay.

Compound	IC50 [µM]
CS(=O)(=O)N1CCN(Cc2cc3nc(-c4cccc5[nH]ncc45)nc(N4CCOCC4)c3s2)CC1 [PICTILISIB]	2.21

These compounds were tested on HT-1080 (assay: cells). Conditions: Homo sapiens.
Assay type: functional, cell-based
Description: SANGER: Inhibition of human HT-1080 cell growth in a cell viability assay.

Compound	IC50 [µM]
CS(=O)(=O)N1CCN(Cc2cc3nc(-c4cccc5[nH]ncc45)nc(N4CCOCC4)c3s2)CC1 [PICTILISIB]	3.09

What follows are compounds tested on Hs-578T (assay: cells). Conditions: Homo sapiens.
Assay type: functional, cell-based
Description: SANGER: Inhibition of human Hs-578-T cell growth in a cell viability assay.

Compound	IC50 [µM]
CS(=O)(=O)N1CCN(Cc2cc3nc(-c4cccc5[nH]ncc45)nc(N4CCOCC4)c3s2)CC1 [PICTILISIB]	1.2

The compounds below were run on HuO9 (assay: cells). Conditions: Homo sapiens.
Assay type: functional, cell-based
Description: SANGER: Inhibition of human HuO9 cell growth in a cell viability assay.

Compound	IC50 [µM]
CS(=O)(=O)N1CCN(Cc2cc3nc(-c4cccc5[nH]ncc45)nc(N4CCOCC4)c3s2)CC1 [PICTILISIB]	0.206

Each compound was assayed on KOSC-2 (assay: cells). Conditions: Homo sapiens.
Assay type: functional, cell-based
Description: SANGER: Inhibition of human KOSC-2 cell growth in a cell viability assay.

Compound	IC50 [µM]
CS(=O)(=O)N1CCN(Cc2cc3nc(-c4cccc5[nH]ncc45)nc(N4CCOCC4)c3s2)CC1 [PICTILISIB]	> 4

These compounds were tested on KYSE-180 (assay: cells). Conditions: Homo sapiens.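 Further: growth inhibition of KYSE-180 cells, read out with a cell viability assay.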
Assay type: functional, cell-based
Description: SANGER: Inhibition of human KYSE-180 cell growth in a cell viability assay.

Compound	IC50 [µM]
CS(=O)(=O)N1CCN(Cc2cc3nc(-c4cccc5[nH]ncc45)nc(N4CCOCC4)c3s2)CC1 [PICTILISIB]	> 4

The compounds below were run on KYSE-410 (assay: cells). Conditions: Homo sapiens.
Assay type: functional, cell-based
Description: SANGER: Inhibition of human KYSE-410 cell growth in a cell viability assay.

Compound	IC50 [µM]
CS(=O)(=O)N1CCN(Cc2cc3nc(-c4cccc5[nH]ncc45)nc(N4CCOCC4)c3s2)CC1 [PICTILISIB]	> 4

Each compound was assayed on KYSE-450 (assay: cells). Conditions: Homo sapiens.
Assay type: functional, cell-based
Description: SANGER: Inhibition of human KYSE-450 cell growth in a cell viability assay.

Compound	IC50 [µM]
CS(=O)(=O)N1CCN(Cc2cc3nc(-c4cccc5[nH]ncc45)nc(N4CCOCC4)c3s2)CC1 [PICTILISIB]	> 4

Each compound was assayed on MDA-MB-175-VII (assay: cells). Conditions: Homo sapiens.
Assay type: functional, cell-based

Compound	IC50 [µM]
CS(=O)(=O)N1CCN(Cc2cc3nc(-c4cccc5[nH]ncc45)nc(N4CCOCC4)c3s2)CC1 [PICTILISIB]	0.353

These compounds were tested on MDA-MB-361 (assay: cells). Conditions: Homo sapiens.
Assay type: functional, cell-based

Compound	IC50 [µM]
CS(=O)(=O)N1CCN(Cc2cc3nc(-c4cccc5[nH]ncc45)nc(N4CCOCC4)c3s2)CC1 [PICTILISIB]	0.439

These compounds were tested on MDA-MB-415 (assay: cells). Conditions: Homo sapiens.
Assay type: functional, cell-based

Compound	IC50 [µM]
CS(=O)(=O)N1CCN(Cc2cc3nc(-c4cccc5[nH]ncc45)nc(N4CCOCC4)c3s2)CC1 [PICTILISIB]	1.49

What follows are compounds tested on NCI-H1563 (assay: cells). Conditions: Homo sapiens.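 Further: growth inhibition of human NCI-H1563 cells, read out with a cell viability assay.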
Assay type: functional, cell-based
Description: SANGER: Inhibition of human NCI-H1563 cell growth in a cell viability assay.

Compound	IC50 [µM]
CS(=O)(=O)N1CCN(Cc2cc3nc(-c4cccc5[nH]ncc45)nc(N4CCOCC4)c3s2)CC1 [PICTILISIB]	0.916

Each compound was assayed on NCI-H650 (assay: cells). Conditions: Homo sapiens.
Assay type: functional, cell-based
Description: SANGER: Inhibition of human NCI-H650 cell growth in a cell viability assay.

Compound	IC50 [µM]
CS(=O)(=O)N1CCN(Cc2cc3nc(-c4cccc5[nH]ncc45)nc(N4CCOCC4)c3s2)CC1 [PICTILISIB]	> 4

What follows are compounds tested on NUGC-3 (assay: cells). Conditions: Homo sapiens.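 Further: growth inhibition of human NUGC-3 cells, read out with a cell viability assay.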
Assay type: functional, cell-based
Description: SANGER: Inhibition of human NUGC-3 cell growth in a cell viability assay.

Compound	IC50 [µM]
CS(=O)(=O)N1CCN(Cc2cc3nc(-c4cccc5[nH]ncc45)nc(N4CCOCC4)c3s2)CC1 [PICTILISIB]	> 4

Each compound was assayed on OE19 (assay: cells). Conditions: Homo sapiens.
Assay type: functional, cell-based
Description: SANGER: Inhibition of human OE19 cell growth in a cell viability assay.

Compound	IC50 [µM]
CS(=O)(=O)N1CCN(Cc2cc3nc(-c4cccc5[nH]ncc45)nc(N4CCOCC4)c3s2)CC1 [PICTILISIB]	> 4

These compounds were tested on PANC-03-27 (assay: cells). Conditions: Homo sapiens.
Assay type: functional, cell-based
Description: SANGER: Inhibition of human PANC-03-27 cell growth in a cell viability assay.

Compound	IC50 [µM]
CS(=O)(=O)N1CCN(Cc2cc3nc(-c4cccc5[nH]ncc45)nc(N4CCOCC4)c3s2)CC1 [PICTILISIB]	1.51

These compounds were tested on RPMI-7951 (assay: cells). Conditions: Homo sapiens.
Assay type: functional, cell-based
Description: SANGER: Inhibition of human RPMI-7951 cell growth in a cell viability assay.

Compound	IC50 [µM]
CS(=O)(=O)N1CCN(Cc2cc3nc(-c4cccc5[nH]ncc45)nc(N4CCOCC4)c3s2)CC1 [PICTILISIB]	> 4

What follows are compounds tested on SAS (assay: cells). Conditions: Homo sapiens.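 Further: growth inhibition of SAS cells, read out with a cell viability assay.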
Assay type: functional, cell-based
Description: SANGER: Inhibition of human SAS cell growth in a cell viability assay.

Compound	IC50 [µM]
CS(=O)(=O)N1CCN(Cc2cc3nc(-c4cccc5[nH]ncc45)nc(N4CCOCC4)c3s2)CC1 [PICTILISIB]	> 4

What follows are compounds tested on SJRH30 (assay: cells). Conditions: Homo sapiens.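 Further: growth inhibition of human SJRH30 cells, read out with a cell viability assay.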
Assay type: functional, cell-based
Description: SANGER: Inhibition of human SJRH30 cell growth in a cell viability assay.

Compound	IC50 [µM]
CS(=O)(=O)N1CCN(Cc2cc3nc(-c4cccc5[nH]ncc45)nc(N4CCOCC4)c3s2)CC1 [PICTILISIB]	> 4

Each compound was assayed on SK-LU-1 (assay: cells). Conditions: Homo sapiens.
Assay type: functional, cell-based
Description: SANGER: Inhibition of human SK-LU-1 cell growth in a cell viability assay.

Compound	IC50 [µM]
CS(=O)(=O)N1CCN(Cc2cc3nc(-c4cccc5[nH]ncc45)nc(N4CCOCC4)c3s2)CC1 [PICTILISIB]	2.45

Each compound was assayed on SKG-IIIa (assay: cells). Conditions: Homo sapiens.
Assay type: functional, cell-based
Description: SANGER: Inhibition of human SKG-IIIa cell growth in a cell viability assay.

Compound	IC50 [µM]
CS(=O)(=O)N1CCN(Cc2cc3nc(-c4cccc5[nH]ncc45)nc(N4CCOCC4)c3s2)CC1 [PICTILISIB]	2.66

These compounds were tested on SN12C (assay: cells). Conditions: Homo sapiens.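 Further: growth inhibition of human SN12C cells, measured by a cell viability assay.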
Assay type: functional, cell-based
Description: SANGER: Inhibition of human SN12C cell growth in a cell viability assay.

Compound	IC50 [µM]
CS(=O)(=O)N1CCN(Cc2cc3nc(-c4cccc5[nH]ncc45)nc(N4CCOCC4)c3s2)CC1 [PICTILISIB]	> 4

The compounds below were run on SW756 (assay: cells). Conditions: Homo sapiens.
Assay type: functional, cell-based
Description: SANGER: Inhibition of human SW756 cell growth in a cell viability assay.

Compound	IC50 [µM]
CS(=O)(=O)N1CCN(Cc2cc3nc(-c4cccc5[nH]ncc45)nc(N4CCOCC4)c3s2)CC1 [PICTILISIB]	> 4

These compounds were tested on SiHa (assay: cells). Conditions: Homo sapiens.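 Further: Viability-based readout of growth inhibition in SiHa cells.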
Assay type: functional, cell-based
Description: SANGER: Inhibition of human SiHa cell growth in a cell viability assay.

Compound	IC50 [µM]
CS(=O)(=O)N1CCN(Cc2cc3nc(-c4cccc5[nH]ncc45)nc(N4CCOCC4)c3s2)CC1 [PICTILISIB]	> 4

The compounds below were run on 8505C (assay: cells). Conditions: Homo sapiens.
Assay type: functional, cell-based
Description: SANGER: Inhibition of human 8505C cell growth in a cell viability assay.

Compound	IC50 [µM]
CS(=O)(=O)N1CCN(Cc2cc3nc(-c4cccc5[nH]ncc45)nc(N4CCOCC4)c3s2)CC1 [PICTILISIB]	> 4

What follows are compounds tested on AGS (assay: cells). Conditions: Homo sapiens.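 Further: growth inhibition of AGS cells, determined with a cell viability assay.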
Assay type: functional, cell-based
Description: SANGER: Inhibition of human AGS cell growth in a cell viability assay.

Compound	IC50 [µM]
CS(=O)(=O)N1CCN(Cc2cc3nc(-c4cccc5[nH]ncc45)nc(N4CCOCC4)c3s2)CC1 [PICTILISIB]	3.62

Each compound was assayed on AN3-CA (assay: cells). Conditions: Homo sapiens.
Assay type: functional, cell-based
Description: SANGER: Inhibition of human AN3-CA cell growth in a cell viability assay.

Compound	IC50 [µM]
CS(=O)(=O)N1CCN(Cc2cc3nc(-c4cccc5[nH]ncc45)nc(N4CCOCC4)c3s2)CC1 [PICTILISIB]	0.34

What follows are compounds tested on BT-20 (assay: cells). Conditions: Homo sapiens.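 Further: cell viability assay measuring suppression of growth in human BT-20 cells.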
Assay type: functional, cell-based
Description: SANGER: Inhibition of human BT-20 cell growth in a cell viability assay.

Compound	IC50 [µM]
CS(=O)(=O)N1CCN(Cc2cc3nc(-c4cccc5[nH]ncc45)nc(N4CCOCC4)c3s2)CC1 [PICTILISIB]	1.69

The compounds below were run on CAL-12T (assay: cells). Conditions: Homo sapiens.
Assay type: functional, cell-based
Description: SANGER: Inhibition of human CAL-12T cell growth in a cell viability assay.

Compound	IC50 [µM]
CS(=O)(=O)N1CCN(Cc2cc3nc(-c4cccc5[nH]ncc45)nc(N4CCOCC4)c3s2)CC1 [PICTILISIB]	> 4

Each compound was assayed on U-118-MG (assay: cells). Conditions: Homo sapiens.
Assay type: functional, cell-based
Description: SANGER: Inhibition of human U-118-MG cell growth in a cell viability assay.

Compound	IC50 [µM]
CS(=O)(=O)N1CCN(Cc2cc3nc(-c4cccc5[nH]ncc45)nc(N4CCOCC4)c3s2)CC1 [PICTILISIB]	> 4

Each compound was assayed on YAPC (assay: cells). Conditions: Homo sapiens.
Assay type: functional, cell-based
Description: SANGER: Inhibition of human YAPC cell growth in a cell viability assay.

Compound	IC50 [µM]
CS(=O)(=O)N1CCN(Cc2cc3nc(-c4cccc5[nH]ncc45)nc(N4CCOCC4)c3s2)CC1 [PICTILISIB]	> 4

Each compound was assayed on COLO-678 (assay: cells). Conditions: Homo sapiens.
Assay type: functional, cell-based
Description: SANGER: Inhibition of human COLO-678 cell growth in a cell viability assay.

Compound	IC50 [µM]
CS(=O)(=O)N1CCN(Cc2cc3nc(-c4cccc5[nH]ncc45)nc(N4CCOCC4)c3s2)CC1 [PICTILISIB]	> 4

These compounds were tested on COLO-679 (assay: cells). Conditions: Homo sapiens.
Assay type: functional, cell-based
Description: SANGER: Inhibition of human COLO-679 cell growth in a cell viability assay.

Compound	IC50 [µM]
CS(=O)(=O)N1CCN(Cc2cc3nc(-c4cccc5[nH]ncc45)nc(N4CCOCC4)c3s2)CC1 [PICTILISIB]	> 4

These compounds were tested on COLO-680N (assay: cells). Conditions: Homo sapiens.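 Further: cell viability assay used to measure inhibition of COLO-680N cell growth.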
Assay type: functional, cell-based
Description: SANGER: Inhibition of human COLO-680N cell growth in a cell viability assay.

Compound	IC50 [µM]
CS(=O)(=O)N1CCN(Cc2cc3nc(-c4cccc5[nH]ncc45)nc(N4CCOCC4)c3s2)CC1 [PICTILISIB]	> 4
